Assay results taken from PMC11594329, “Development of LAT1-Selective Nuclear Medicine Therapeutics Using Astatine-211” (International Journal of Molecular Sciences, 2024).

Assays:
[1] = Urinary and fecal excretion in ICR mice; assay type: in vivo
Experimental: Urinary excretion levels were also examined (Supplementary Table S1). Comparing the D-isomer and L isomer of ^211At-AAMT-O-Me from ICR mice, the D-isomer; 24.84 ± 13.03% ID, L-isomer; 33.69 ± 1.26% ID at 1 h after injection. D-isomer; 71.36 ± 4.67% ID, L-isomer; 23.99 ± 2.40% ID at 3 h after injection. From PANC-1 tumor bearing mice, D-isomer; 35.24 ± 8.70% ID, L-isomer; 20.40 ± 0.76% ID at 1 h after injection. D-isomer; 47.38 ± 3.19% ID, L-isomer; 3.23 ± 0.67% ID at 3 h after injection. In tumor-bearing models, the amount of excretion was smaller than that in normal mice. We have already reported that, in the presence of target cancer tissue for administered drugs, retention in the cancer tissue results in reduced excretion compared with normal animals. […] The same was also observed for feces, but very little was excreted in the feces. The results were as follows: from ICR mice, D-isomer; 0.06 ± 0.03% ID, L-isomer; 0.004 ± 0.003% ID at 1 h after injection. D-isomer; 0.02 ± 0.01% ID, L-isomer; 0.02 ± 0.01% ID at 3 h after injection. From PANC-1 tumor bearing mice, D-isomer; 0.25 ± 0.12% ID, L-isomer; 0.002 ± 0.001% ID at 1 h after injection. D-isomer; 0.75 ± 0.46% ID; L-isomer; 0.07 ± 0.03% ID at 3 h after injection.
ICR mice (male, 5 weeks old) were purchased from Japan SLC (Shizuoka, Japan) and acclimated for one week prior to use. The doses in the distribution experiments were as follows: ^211At-AAMT-O-Me-L (0.407 ± 0.005 MBq/mouse, 31.64 ± 0.76 g, n = 6), ^211At-AAMT-O-Me-D (0.351 ± 0.004 MBq/mouse, 31.44 ± 0.94 g, n = 6), ^211At-AAMT-O-Et-L (0.685 ± 0.010 MBq/mouse, 24.14 ± 3.31 g, n = 6), ^211At-AAMT-O-Pr-L (1.09 ± 0.06 MBq/mouse, 26.33 ± 0.39 g, n = 6)

[2] = test system: PANC-1 tumor model; test: Tissue distribution in nude mice (PANC-1 tumor model); assay type: in vivo, BALB/c nu/nu mice
In short: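 Male 5-week-old BALB/c nu/nu mice bearing subcutaneous PANC-1 xenografts (1 × 10^7 cells/mouse with Matrigel), used once tumors exceeded 50 mm^3. Single doses of ^211At-labelled AAMT derivatives ranged from 135.08 ± 2.35 kBq to 0.927 ± 0.020 MBq per mouse, n = 3–6.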

[3] = nude mice (PANC-1 tumor model), 1 h after injection
[4] = nude mice (PANC-1 tumor model), 3 h after injection
[5] = nude mice (PANC-1 tumor model), 24 h after injection
[6] = nude mice (PANC-1 tumor model), after 24 h

SMILES: COc1ccc(C[C@](C)(N)C(=O)O)cc1[211At] [^211At-AAMT-O-Me-L, (S)-2-amino-3-(3-(astato-^211At)-4-methoxyphenyl)-2-methylpropanic acid]
- Excretion in feces ([1]; 1 h after injection): 0.004 ± 0.003 % ID
- Urinary excretion ([1]; 1 h after injection): 33.69 ± 1.26 % ID
- Excretion in feces ([1]; 3 h after injection): 0.02 ± 0.01 % ID
- Urinary excretion ([1]; 3 h after injection): 23.99 ± 2.40 % ID
- Tissue distribution, Bladder [2, 3]: 0.06 ± 0.00 %ID/g
- Tissue distribution, Blood [2, 3]: 7.85 ± 1.17 %ID/g
- Tissue distribution, Bone [2, 3]: 0.68 ± 1.27 %ID/g
- Tissue distribution, Brain [2, 3]: 0.46 ± 0.00 %ID/g
- Tissue distribution, Cecum [2, 3]: 0.46 ± 0.05 %ID/g
- Tissue distribution, Colon [2, 3]: 1.14 ± 0.27 %ID/g
- Tissue distribution, Heart [2, 3]: 0.86 ± 0.04 %ID/g
- Tissue distribution, Kidney [2, 3]: 3.56 ± 0.09 %ID/g
- Tissue distribution, Liver [2, 3]: 4.92 ± 0.24 %ID/g
- Tissue distribution, Lung [2, 3]: 5.16 ± 0.11 %ID/g
- Tissue distribution, Pancreas [2, 3]: 0.58 ± 0.01 %ID/g
- Tissue distribution, Salivary glands [2, 3]: 0.58 ± 0.05 %ID/g
- Tissue distribution, Small intestine [2, 3]: 3.40 ± 0.36 %ID/g
- Tissue distribution, Spleen [2, 3]: 4.34 ± 0.79 %ID/g
- Tissue distribution, Stomach [2, 3]: 1.32 ± 0.06 %ID/g
- Tissue distribution, Testis [2, 3]: 0.55 ± 0.02 %ID/g
- Tissue distribution, Thyroid [2, 3]: 0.20 ± 0.02 %ID/g
- Tissue distribution, Tumor [2, 3]: 7.83 ± 0.30 %ID/g
- Tissue distribution, Bladder [2, 4]: 0.09 ± 0.01 %ID/g
- Tissue distribution, Blood [2, 4]: 10.38 ± 2.28 %ID/g
- Tissue distribution, Bone [2, 4]: 0.51 ± 1.35 %ID/g
- Tissue distribution, Brain [2, 4]: 0.29 ± 0.01 %ID/g
- Tissue distribution, Cecum [2, 4]: 0.43 ± 0.16 %ID/g
- Tissue distribution, Colon [2, 4]: 0.68 ± 0.23 %ID/g
- Tissue distribution, Heart [2, 4]: 0.76 ± 0.07 %ID/g
- Tissue distribution, Kidney [2, 4]: 2.29 ± 0.07 %ID/g
- Tissue distribution, Liver [2, 4]: 4.62 ± 0.20 %ID/g
- Tissue distribution, Lung [2, 4]: 5.10 ± 0.42 %ID/g
- Tissue distribution, Pancreas [2, 4]: 0.36 ± 0.10 %ID/g
- Tissue distribution, Salivary glands [2, 4]: 0.78 ± 0.18 %ID/g
- Tissue distribution, Small intestine [2, 4]: 2.50 ± 0.42 %ID/g
- Tissue distribution, Spleen [2, 4]: 3.97 ± 0.59 %ID/g
- Tissue distribution, Stomach [2, 4]: 1.31 ± 0.32 %ID/g
- Tissue distribution, Testis [2, 4]: 0.55 ± 0.11 %ID/g
- Tissue distribution, Thyroid [2, 4]: 0.23 ± 0.04 %ID/g
- Tissue distribution, Tumor [2, 4]: 10.29 ± 0.88 %ID/g
- Tissue distribution, Bladder [2, 5]: 0.55 ± 0.13 %ID/g
- Tissue distribution, Blood [2, 5]: 0.88 ± 0.23 %ID/g
- Tissue distribution, Bone [2, 5]: 0.75 ± 0.18 %ID/g
- Tissue distribution, Brain [2, 5]: 0.13 ± 0.04 %ID/g
- Tissue distribution, Cecum [2, 5]: 2.09 ± 0.41 %ID/g
- Tissue distribution, Colon [2, 5]: 1.69 ± 0.15 %ID/g
- Tissue distribution, Heart [2, 5]: 1.29 ± 0.42 %ID/g
- Tissue distribution, Kidney [2, 5]: 1.67 ± 0.49 %ID/g
- Tissue distribution, Liver [2, 5]: 0.92 ± 0.15 %ID/g
- Tissue distribution, Lung [2, 5]: 4.43 ± 1.76 %ID/g
- Tissue distribution, Pancreas [2, 5]: 0.59 ± 0.17 %ID/g
- Tissue distribution, Salivary glands [2, 5]: 13.65 ± 5.31 %ID/g
- Tissue distribution, Small intestine [2, 5]: 1.49 ± 0.29 %ID/g
- Tissue distribution, Spleen [2, 5]: 3.12 ± 2.06 %ID/g
- Tissue distribution, Stomach [2, 5]: 8.89 ± 2.65 %ID/g
- Tissue distribution, Testis [2, 5]: 1.18 ± 0.25 %ID/g
- Tissue distribution, Thyroid [2, 5]: 9.37 ± 3.33 %ID/g
- Tissue distribution, Tumor [2, 5]: 1.86 ± 0.39 %ID/g
- Accumulation remaining in tumors relative to ^211At-AAMT-OH-L [2, 6]: 2.6 times
- Blood intensity relative to ^211At-AAMT-OH-L [2, 6]: 22 times
- Increase of blood intensity in tumor-bearing mice compared with normal animals ([2]; tumor-bearing mice versus ICR mice): 5 fold

SMILES: COc1ccc(C[C@@](C)(N)C(=O)O)cc1[211At] [^211At-AAMT-O-Me-D]
- Excretion in feces ([1]; 1 h after injection): 0.06 ± 0.03 % ID
- Urinary excretion ([1]; 1 h after injection): 24.84 ± 13.03 % ID
- Excretion in feces ([1]; 3 h after injection): 0.02 ± 0.01 % ID
- Urinary excretion ([1]; 3 h after injection): 71.36 ± 4.67 % ID
- Urinary content ([1]; after 3 h): exceeded 70%
- Tissue distribution, Bladder [2, 3]: 1.76 ± 1.64 %ID/g
- Tissue distribution, Blood [2, 3]: 3.52 ± 1.89 %ID/g
- Tissue distribution, Bone [2, 3]: 0.30 ± 0.12 %ID/g
- Tissue distribution, Brain [2, 3]: 0.15 ± 0.01 %ID/g
- Tissue distribution, Cecum [2, 3]: 2.35 ± 1.73 %ID/g
- Tissue distribution, Colon [2, 3]: 0.85 ± 0.49 %ID/g
- Tissue distribution, Heart [2, 3]: 0.53 ± 0.08 %ID/g
- Tissue distribution, Kidney [2, 3]: 1.40 ± 0.56 %ID/g
- Tissue distribution, Liver [2, 3]: 3.09 ± 0.39 %ID/g
- Tissue distribution, Lung [2, 3]: 2.24 ± 0.89 %ID/g
- Tissue distribution, Pancreas [2, 3]: 0.61 ± 0.44 %ID/g
- Tissue distribution, Salivary glands [2, 3]: 0.30 ± 0.10 %ID/g
- Tissue distribution, Small intestine [2, 3]: 2.05 ± 0.81 %ID/g
- Tissue distribution, Spleen [2, 3]: 1.70 ± 0.74 %ID/g
- Tissue distribution, Stomach [2, 3]: 1.43 ± 0.94 %ID/g
- Tissue distribution, Testis [2, 3]: 1.05 ± 0.77 %ID/g
- Tissue distribution, Thyroid [2, 3]: 0.14 ± 0.04 %ID/g
- Tissue distribution, Tumor [2, 3]: 3.25 ± 1.39 %ID/g
- Tissue distribution, Bladder [2, 4]: 1.04 ± 0.97 %ID/g
- Tissue distribution, Blood [2, 4]: 1.92 ± 1.16 %ID/g
- Tissue distribution, Bone [2, 4]: 0.26 ± 0.12 %ID/g
- Tissue distribution, Brain [2, 4]: 0.10 ± 0.03 %ID/g
- Tissue distribution, Cecum [2, 4]: 1.32 ± 0.96 %ID/g
- Tissue distribution, Colon [2, 4]: 0.40 ± 0.25 %ID/g
- Tissue distribution, Heart [2, 4]: 0.37 ± 0.03 %ID/g
- Tissue distribution, Kidney [2, 4]: 1.54 ± 0.86 %ID/g
- Tissue distribution, Liver [2, 4]: 2.60 ± 0.07 %ID/g
- Tissue distribution, Lung [2, 4]: 1.27 ± 0.40 %ID/g
- Tissue distribution, Pancreas [2, 4]: 0.48 ± 0.35 %ID/g
- Tissue distribution, Salivary glands [2, 4]: 0.33 ± 0.13 %ID/g
- Tissue distribution, Small intestine [2, 4]: 1.48 ± 0.37 %ID/g
- Tissue distribution, Spleen [2, 4]: 1.81 ± 1.19 %ID/g
- Tissue distribution, Stomach [2, 4]: 1.29 ± 0.77 %ID/g
- Tissue distribution, Testis [2, 4]: 1.64 ± 1.26 %ID/g
- Tissue distribution, Thyroid [2, 4]: 0.14 ± 0.06 %ID/g
- Tissue distribution, Tumor [2, 4]: 3.84 ± 2.10 %ID/g
